Assay results published in patent publication US20130096012A1, “METHOD AND KIT FOR IDENTIFYING A TRANSLATION INITIATION SITE ON AN MRNA” (CORNELL UNIVERSITY, priority 2011, published 2013).

Assays:
HEK293 cells [1] = assay: Ribosome profiling (deep sequencing of ribosome-protected mRNA fragments, GTI-seq) of drug-treated cells; assay type: cell-based, Human; settings: 30 min, FIG. 1C; for distribution of RPF reads relative to the annotated start codon: 100 μM CHX, 50 μM LTM or 2 μg/ml harringtonine, metagene analysis, 1D
Text: FIGS. 1A-D show the experimental strategy of GTI-seq using ribosome E-site translation inhibitors. Specifically, FIG. 1A is a schematic diagram of the experimental design for GTI-seq. Translation inhibitors cycloheximide (“CHX”) and lactimidomycin (“LTM”) bind to the ribosome E-site, resulting in inhibition of translocation. While CHX binds to all translating ribosomes (FIG. 1A, left panel), LTM preferably incorporates into the initiating ribosomes when the E-site is free of tRNA (FIG. 1A, right panel). FIG. 1B is a schematic illustration showing ribosome profiling using CHX and LTM side-by-side, which allows distinguishing the initiating ribosome from the elongating one. FIG. 1C is a graph showing data related to HEK293 cells being treated with either DMSO, 100 μM CHX, or 50 μM LTM for 30 min before ribosome profiling. Normalized RPF reads were averaged across the entire transcriptome, aligned at either their start site or stop codon. FIG. 1D presents two graphs showing metagene analysis of RPFs obtained from HEK293 cells treated with either harringtonine (FIG. 1D, left panel) or LTM (FIG. 1D, right panel). All mapped reads were aligned at the annotated start codon AUG, and the reads density at each nucleotide position was averaged using the P-site of RPFs.
HEK293 or MEF cells were treated with 100 μM CHX, 50 μM LTM, 2 μg/ml harringtonine or DMSO at 37° C. for 30 min. Cells were lysed in polysome buffer and cleared lysates were separated by sedimentation through sucrose gradients. Collected polysome fractions were digested with RNase I and the RPF fragments were size selected and purified by gel extraction. After the construction of sequencing library from these fragments, deep sequencing was performed using IlluminaHiSEQ. The trimmed RPF reads with final lengths of 26-29 nt were aligned to the RefSeq transcript sequences by Bowtie-0.12.7 allowing one mismatch. A TIS position on individual transcript was called if the normalized LTM reads density at the every nucleotide position subtracting with that of CHX was well above the background. In analysis of non-coding RNA, only reads unique to single ncRNA were used. To experimentally validate the identified TIS codons, specific genes encompassing both the 5′UTR and the CDS were amplified by RT-PCR from total cellular RNAs extracted from HEK293 cells. The resultant cDNAs were cloned into pcDNA3.1 containing c-myc tag at the COOH-terminus. After transfection into HEK293 cells, whole cell lysates were used for immunoblotting using anti-myc antibody.
Human HEK293 and mouse embryonic fibroblast (“MEF”) were maintained in Dulbecco's Modified Eagle's Medium (“DMEM”) with 10% fetal bovine serum (“FBS”). Cycloheximide was purchased from Sigma and harringtonine from LKT Laboratories. […]

HEK293 cells [2] = assay: Polysome profiling by sucrose gradient sedimentation of drug-treated cells; assay type: cell-based, Human; settings: 100 μM CHX or 50 μM LTM, 30 min, compared to no-drug treatment (DMSO), FIG. 7
Description: FIG. 7 is a series of graphs showing polysome profile analysis in cells treated with ribosome E-site translation inhibitors. In particular, HEK293 cells were pre-treated with equal volume of DMSO, 100 μM CHX, or 50 μM LTM for 30 min followed by sucrose gradient sedimentation. Both 80S monosome and polysome peaks are indicated.
HEK293 or MEF cells were treated with 100 μM CHX, 50 μM LTM, 2 μg/ml harringtonine or DMSO at 37° C. for 30 min. Cells were lysed in polysome buffer and cleared lysates were separated by sedimentation through sucrose gradients. Collected polysome fractions were digested with RNase I and the RPF fragments were size selected and purified by gel extraction. […] The trimmed RPF reads with final lengths of 26-29 nt were aligned to the RefSeq transcript sequences by Bowtie-0.12.7 allowing one mismatch. A TIS position on individual transcript was called if the normalized LTM reads density at the every nucleotide position subtracting with that of CHX was well above the background. In analysis of non-coding RNA, only reads unique to single ncRNA were used. […]
Sucrose solution was prepared in polysome buffer (pH 7.4, 10 mM HEPES, 100 mM KCl, 5 mM MgCl2). […] Separated samples were fractionated at 0.750 ml/min through a fractionation system (Isco) that continually monitored OD254 values. […]

Compound | distribution of RPF reads relative to the annotated start codon (HEK293 cells [1]) | effect on polysome profile (80S monosome and polysome peaks) (HEK293 cells [2]) | effect on ribosome (RPF) density at the stop codon (HEK293 cells [1]; 50 μM LTM, versus untreated cells or CHX)
COC(=O)C[C@](O)(CCC(C)(C)O)C(=O)O[C@@H]1C(OC)=C[C@]23CCCN2CCc2cc4c(cc2[C@H]13)OCO4 [harringtonine] | a substantial fraction of RPFs accumulated in regions downstream of the start codon |  | 
C/C(=C\[C@H](C)C(=O)C[C@H](O)CC1CC(=O)NC(=O)C1)[C@@H]1OC(=O)/C=C/CC/C=C/C=C\[C@@H]1C [LTM, lactimidomycin] | pronounced single peak located at the −12 nucleotide (nt) position relative to the annotated start codon | large increase in monosome accompanied by a depletion of polysomes | eliminated the excess of ribosomes seen at the stop codon
C[C@@H]1C[C@@H]([C@H](O)CC2CC(=O)NC(=O)C2)C(=O)[C@@H](C)C1 [CHX, cycloheximide] | an excess of RPFs at the beginning of ORFs in addition to the body of CDS | slightly stabilized the polysomes | 
